Data reported in patent publication US8519149B2, “Tricyclic compounds as mPGES-1 inhibitors” (Glenmark Pharmaceuticals S.A., priority 2010, dated 2013).

Biological target: T1, Recombinant human mPGES-1 (Homo sapiens, UniProt O14684)
T1 sequence (O14684 1-152): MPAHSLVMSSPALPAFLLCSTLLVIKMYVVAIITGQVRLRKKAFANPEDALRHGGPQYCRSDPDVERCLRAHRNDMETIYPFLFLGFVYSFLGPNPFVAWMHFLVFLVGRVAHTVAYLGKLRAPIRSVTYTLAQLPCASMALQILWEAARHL
Assay: In-vitro mPGES-1 enzyme inhibition assay (PGE2 formation from PGH2, HTRF detection)
Assay type: biochemical
Settings: for inhibition at 1 µM: 1 μM test compound, read-out: Percentage inhibition at 1 μM; for inhibition at 1 µM / inhibition at 10 µM: recombinant human mPGES-1 microsomal fraction; for inhibition at 10 µM: 10 μM test compound, read-out: Percentage inhibition at 10 μM; for IC50: class symbols, selected examples
Method in brief: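 Crude microsomal fractions containing recombinant human mPGES-1 (40-60 μg/mL protein) convert PGH2 to PGE2 in the presence of reduced glutathione, with 0.5% final DMSO. Reaction stopped with stannous chloride, and PGE2 measured by anti-PGE2 antibody (HTRF) detection. IC50 by nonlinear regression of % inhibition versus uninhibited enzyme control.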

Structure (SMILES)	inhibition at 1 µM [%]	inhibition at 10 µM [%]	IC50 [nM]
Cc1cccc(Cl)c1Nc1nc2cc(C(=O)Nc3cccc(C(C)(F)F)c3)c3c(c2[nH]1)CC(C)(C)O3 [Example-120, 2-[(2-Chloro-6-methylphenyl)amino]-N-[3-(1,1-difluoroethyl)phenyl]-7,7-dimethyl-7,8-dihydro-1H-furo[3,2-e]benzimidazole-5-carboxamide]	90.5	99	< 50
CC1(C)Cc2c(c(C(=O)Nc3ccc(Cl)cn3)cc3nc(Nc4c(F)cccc4Cl)[nH]c23)O1 [Example-121, 2-[(2-Chloro-6-fluorophenyl)amino]-N-(5-chloropyridin-2-yl)-7,7-dimethyl-7,8-dihydro-1H-furo[3,2-e]benzimidazole-5-carboxamide]	100	100	–
CC1(C)Cc2c(c(C(=O)Nc3ccc(C(F)(F)F)cn3)cc3nc(Nc4c(F)cccc4Cl)[nH]c23)O1 [Example-122, 2-[(2-Chloro-6-fluorophenyl)amino]-7,7-dimethyl-N-[5-(trifluoromethyl)pyridin-2-yl]-7,8-dihydro-1H-furo[3,2-e]benzimidazole-5-carboxamide]	96	98.1	< 50
Cc1ccc(Cl)c(Nc2nc3cc(C(=O)Nc4cccc(C(F)(F)F)c4)c4c(c3[nH]2)CC(C)(C)O4)c1 [Example-123, 2-[(2-Chloro-5-methylphenyl)amino]-7,7-dimethyl-N-[3-(trifluoromethyl)phenyl]-7,8-dihydro-1H-furo[3,2-e]benzimidazole-5-carboxamide]	91.1	98.9	< 50
Cc1cccc(Cl)c1Nc1nc2cc(C(=O)Nc3ccc(C(F)(F)F)cn3)c3c(c2[nH]1)CC(C)(C)O3 [Example-124, 2-[(2-Chloro-6-methylphenyl)amino]-7,7-dimethyl-N-[5-(trifluoromethyl)pyridin-2-yl]-7,8-dihydro-1H-furo[3,2-e]benzimidazole-5-carboxamide]	97.1	100	< 50
CC1(C)Cc2c(c(C(=O)Nc3ccc(OCC4CC4)nc3)cc3nc(Nc4c(F)cccc4Cl)[nH]c23)O1 [Example-125, 2-[(2-Chloro-6-fluorophenyl)amino]-N-[6-(cyclopropylmethoxy)pyridin-3-yl]-7,7-dimethyl-7,8-dihydro-1H-furo[3,2-e]benzimidazole-5-carboxamide]	10.6	76.7	–
CC1(C)Cc2c(c(C(=O)Nc3ncc(Cl)cc3F)cc3nc(Nc4c(F)cccc4Cl)[nH]c23)O1 [Example-126, N-(5-Chloro-3-fluoropyridin-2-yl)-2-((2-chloro-6-fluorophenyl)amino)-7,7-dimethyl-7,8-dihydro-1H-benzofuro[4,5-d]imidazole-5-carboxamide]	96.6	97.7	< 50
CC1(C)Cc2c(c(C(=O)NC3(c4cccc(C(F)(F)F)c4)CC3)cc3nc(Nc4c(F)cccc4Cl)[nH]c23)O1 [Example-127, 2-((2-Chloro-6-fluorophenyl)amino)-7,7-dimethyl-N-(1-(3-(trifluoromethyl)phenyl)cyclopropyl)-7,8-dihydro-1H-benzofuro[4,5-d]imidazole-5-carboxamide]	94.7	99	< 50
Cc1ccc(NC(=O)c2cc3nc(Nc4c(F)cccc4Cl)[nH]c3c3c2OC(C)(C)C3)c(F)c1 [Example-128, 2-((2-Chloro-6-fluorophenyl)amino)-N-(2-fluoro-4-methylphenyl)-7,7-dimethyl-7,8-dihydro-1H-benzofuro[4,5-d]imidazole-5-carboxamide]	90.5	94	< 50
CC1(C)Cc2c(c(C(=O)NCc3ccc(F)cc3C(F)(F)F)cc3nc(Nc4c(F)cccc4Cl)[nH]c23)O1 [Example-129, 2-((2-Chloro-6-fluorophenyl)amino)-N-(4-fluoro-2-(trifluoromethyl)benzyl)-7,7-dimethyl-7,8-dihydro-1H-benzofuro[4,5-d]imidazole-5-carboxamide]	88.3	97.1	< 50
Cc1cccc(Cl)c1Nc1nc2cc(C(=O)NCc3ccc(F)cc3C(F)(F)F)c3c(c2[nH]1)CC(C)(C)O3 [Example-130, 2-((2-Chloro-6-methylphenyl)amino)-N-(4-fluoro-2-(trifluoromethyl)benzyl)-7,7-dimethyl-7,8-dihydro-1H-benzofuro[4,5-d]imidazole-5-carboxamide]	74.6	96.8	–
CC1(C)Cc2c(c(C(=O)Nc3cc(C(F)F)ccc3F)cc3nc(Nc4c(F)cccc4Cl)[nH]c23)O1 [Example-131, 2-((2-Chloro-6-fluorophenyl)amino)-N-(5-(difluoromethyl)-2-fluorophenyl)-7,7-dimethyl-7,8-dihydro-1H-benzofuro[4,5-d]imidazole-5-carboxamide]	96.9	98.1	< 50
Cc1cccc(Cl)c1Nc1nc2cc(C(=O)NC3(c4cccc(C(F)(F)F)c4)CC3)c3c(c2[nH]1)CC(C)(C)O3 [Example-132, 2-((2-Chloro-6-methylphenyl)amino)-7,7-dimethyl-N-(1-(3-(trifluoromethyl)phenyl)cyclopropyl)-7,8-dihydro-1H-benzofuro[4,5-d]imidazole-5-carboxamide]	92.4	98	< 50
Cc1cccc(Cl)c1Nc1nc2cc(C(=O)Nc3ccc(F)c(C(F)(F)F)c3)c3c(c2[nH]1)CC(C)(C)O3 [Example-133, 2-((2-Chloro-6-methylphenyl)amino)-N-(4-fluoro-3-(trifluoromethyl)phenyl)-7,7-dimethyl-7,8-dihydro-1H-benzofuro[4,5-d]imidazole-5-carboxamide]	91.4	96.5	< 50
CC1(C)Cc2c(c(C(=O)Nc3cc(C4CC4)ccc3F)cc3nc(Nc4c(F)cccc4Cl)[nH]c23)O1 [Example-134, 2-((2-Chloro-6-fluorophenyl)amino)-N-(5-cyclopropyl-2-fluorophenyl)-7,7-dimethyl-7,8-dihydro-1H-benzofuro[4,5-d]imidazole-5-carboxamide]	99.9	99.4	< 50
Cc1cccc(Cl)c1Nc1nc2cc(C(=O)Nc3cc(C(F)F)ccc3F)c3c(c2[nH]1)CC(C)(C)O3 [Example-135, 2-((2-Chloro-6-methylphenyl)amino)-N-(5-(difluoromethyl)-2-fluorophenyl)-7,7-dimethyl-7,8-dihydro-1H-benzofuro[4,5-d]imidazole-5-carboxamide]	97.5	98.6	< 50
Cc1cccc(Cl)c1Nc1nc2cc(C(=O)Nc3cc(C4CC4)ccc3F)c3c(c2[nH]1)CC(C)(C)O3 [Example-136, 2-((2-Chloro-6-methylphenyl)amino)-N-(5-cyclopropyl-2-fluorophenyl)-7,7-dimethyl-7,8-dihydro-1H-benzofuro[4,5-d]imidazole-5-carboxamide]	89.4	96.9	< 50
Cc1ccnc(Cl)c1Nc1nc2cc(C(=O)Nc3cccc(C(F)(F)F)c3)c3c(c2[nH]1)CC(C)(C)O3 [Example-137, 2-((2-Chloro-4-methylpyridin-3-yl)amino)-7,7-dimethyl-N-(3-(trifluoromethyl)phenyl)-7,8-dihydro-1H-benzofuro[4,5-d]imidazole-5-carboxamide]	95.3	100	< 50
Cn1c(Nc2c(F)cccc2Cl)nc2cc(C(=O)Nc3cccc(C(F)(F)F)c3)c3c(c21)CC(C)(C)O3 [Example-139, 2-((2-Chloro-6-fluorophenyl)amino)-1,7,7-trimethyl-N-(3-(trifluoromethyl)phenyl)-7,8-dihydro-1H-benzofuro[4,5-d]imidazole-5-carboxamide]	95.9	99.2	< 50
CC1(C)Cc2c(c(C(=O)Nc3ccc(C4CC4)cc3)cc3nc(Nc4c(F)cccc4Cl)[nH]c23)O1 [Example-140, 2-((2-Chloro-6-fluorophenyl)amino)-N-(4-cyclopropylphenyl)-7,7-dimethyl-7,8-dihydro-1H-benzofuro[4,5-d]imidazole-5-carboxamide]	97.1	98.9	< 50
CC1(C)Cc2c(c(C(=O)Nc3cc(F)c(F)cc3F)cc3nc(Nc4c(Cl)cccc4Cl)[nH]c23)O1 [Example-141, 2-((2,6-Dichlorophenyl)amino)-7,7-dimethyl-N-(2,4,5-trifluorophenyl)-7,8-dihydro-1H-benzofuro[4,5-d]imidazole-5-carboxamide]	96.4	98.6	< 50
Cc1ccc(NC(=O)c2cc3nc(Nc4c(Cl)cccc4Cl)[nH]c3c3c2OC(C)(C)C3)c(F)c1 [Example-142, 2-((2,6-Dichlorophenyl)amino)-N-(2-fluoro-4-methylphenyl)-7,7-dimethyl-7,8-dihydro-1H-benzofuro[4,5-d]imidazole-5-carboxamide]	97.9	97.5	< 50
CC1(C)Cc2c(c(C(=O)Nc3cccc(C(F)(F)F)c3)cc3nc(NC(=O)c4c(F)cccc4Cl)[nH]c23)O1 [Example-143, 2-(2-Chloro-6-fluorobenzamido)-7,7-dimethyl-N-(3-(trifluoromethyl)phenyl)-7,8-dihydro-1H-benzofuro[4,5-d]imidazole-5-carboxamide]	19.6	39.2	–
